Where two headings read alike, the source gives them in different places.
Key:
[1] = 26-week rat toxicity and toxicokinetic study; format: in vivo; settings: for Tmax / AUC(0-t) / Cmax: po; for AUC(0-t): read-out: AUC0-24; for mean body weight lower than control: end of 4-week recovery; for mean cumulative body weight gain lower: end of treatment
Description: A portion of the animals from each group was maintained for an additional 4-week post-treatment recovery period.
For toxicology assessment, groups comprised thirty animals of each gender. Assessments included clinical observations, body weight, and food consumption measures noted periodically during the study. […] Ophthalmic examinations were performed during Weeks 1 and 13. […] In addition, the liver, vagina, and ovaries were identified as potential target tissues and were examined microscopically for all animals from all groups at the primary and recovery necropsies. […] 10 animals of each gender from each group were held to week 30 for a 4-week post-treatment recovery period.
For the toxicokinetic studies, there were ten animals of each gender in each group.

[2] = 12-month dog toxicity and toxicokinetic study; format: in vivo; settings: for Cmax / Tmax / AUC(0-t): beagle, dog, plasma, po; for AUC(0-t): read-out: AUC0-24; for body weight lower than control: Week 52
Description: Blood samples were collected on Days 0, 91, 181, 268 and 358 from up to 4 animals/gender/group. Plasma samples collected on Days 91, 181, 268, as well as all plasma samples collected from the control group were not evaluated.
For toxicology assessment four dogs of each gender were included in each group. Assessments included clinical observations, body weight, and food consumption measures which were recorded periodically during the study. Ophthalmic examinations were performed during Weeks 1, 12, 25, 38, 51, and 55 (recovery period). Electrocardiograms were recorded during Weeks 2, 12, 25, 38, and 51. Clinical pathology evaluations (hematology, serum chemistry, and urinalysis) were performed during Weeks 1, 12, 25, 38, 52, and 56 (recovery period). At termination, complete necropsies were performed on all dogs and selected organs were weighed. Selected tissues from the control and 20 (15) mg/kg/day group animals and animals euthanized in extremis were examined microscopically. Sections of livers from dogs in the control and 20 (15) mg/kg/day groups were collected at both the primary and 4-week post-treatment recovery necropsies for assessment of drug metabolism enzyme (microsomal cytochrome P450) activity.

[3] = In vitro metabolism in human hepatocytes; settings: male, human, hepatocytes, 4 h, 87 μM
Description: Cryopreserved human hepatocytes (male) that are prepared by XenoTech, LLC (Lenexa, Kans.), are thawed on the day of use and resuspended in Waymouth's incubation media. The enzymatic activity of hepatocytes is monitored using 7-ethoxycoumarin and 7-hydroxycoumarin as substrates. […] The incubations are carried out for 4 hours with 1×10^6 viable cells/ml. […] At 0 and 4 hour, cell suspensions are extracted using two volumes of ice cold methanol. After centrifugation, the extracts are stored at −20° C. until further sample processing. The solvent in the samples are dried under a stream of nitrogen, and resuspended in methanol:water (1:1) before analysis.
The extracts of the 4 hour incubation mixture are analyzed by liquid chromatography/electrospray ionization-mass spectrometry (LC/ESI-MS) in the positive and negative ion modes to screen for possible metabolites. HPLC Methods 1 and 2 are used to find potential metabolites, and the HPLC and mass spectrometry systems are described in Table 56. The same instrumentation and methods in HPLC Method 1 are used in HPLC Method 2 with the exception that the mobile phases and gradient are changed to 0.4% HCOOH in H2O for mobile A and CH3OH for mobile phase B. The mass spectrometer is LCQ™ Ion Trap Mass Spectrometer and is in either the positive or negative electrospray mode with the ion spray set at 4.5 kV. The capillary temperature is 250° C., the nitrogen sheath gas flow rate is ˜80 unit, the auxiliary nitrogen gas flow rate is 20 unit, and the collision gas is helium.

[4] = mouse, in vivo; for AUC0-24: po
[5] = female, Crl:CD(SD)IGS BR, rat, in vivo, 8 mg/kg/day, females, 8 mg/kg/day, Day 0
[6] = female, Crl:CD(SD)IGS BR, rat, in vivo, 25 mg/kg/day, females, 25 mg/kg/day, Day 0
[7] = female, Crl:CD(SD)IGS BR, rat, in vivo, 25 mg/kg/day, females, 25 mg/kg/day, Day 177
[8] = male, Crl:CD(SD)IGS BR, rat, in vivo, 8 mg/kg/day, males, 8 mg/kg/day, Day 0
[9] = male, Crl:CD(SD)IGS BR, rat, in vivo, 8 mg/kg/day, males, 8 mg/kg/day, Day 177
[10] = male, Crl:CD(SD)IGS BR, rat, in vivo, 25 mg/kg/day, males, 25 mg/kg/day, Day 0
[11] = male, Crl:CD(SD)IGS BR, rat, in vivo, 25 mg/kg/day, males, 25 mg/kg/day, Day 177
[12] = female, 2 mg/kg/day, females, 2 mg/kg/day, Day 0
[13] = female, 2 mg/kg/day, females, 2 mg/kg/day, Day 358
[14] = female, 6 mg/kg/day, females, 6 mg/kg/day, Day 0
[15] = female, 6 mg/kg/day, females, 6 mg/kg/day, Day 358
[16] = female, 15 mg/kg/day, females, 20 (15) mg/kg/day, Day 358
[17] = female, 20 mg/kg/day, females, 20 (15) mg/kg/day, Day 0
[18] = male, 2 mg/kg/day, males, 2 mg/kg/day, Day 0
[19] = male, 2 mg/kg/day, males, 2 mg/kg/day, Day 358
[20] = male, 6 mg/kg/day, males, 6 mg/kg/day, Day 0
[21] = male, 6 mg/kg/day, males, 6 mg/kg/day, Day 358
[22] = male, 15 mg/kg/day, males, 20 (15) mg/kg/day, Day 358
[23] = male, 20 mg/kg/day, males, 20 (15) mg/kg/day, Day 0

## Clc1ccc([C@]23CNC[C@H]2C3)cc1Cl [amitifadine, (+)-1-(3,4-dichlorophenyl)-3-azabicyclo[3.1.0]hexane]
[1]; both sexes, Crl:CD(SD)IGS BR, rat, in vivo, oral gavage, 26 weeks
  NOAEL at 26 weeks: 8 mg/kg/day
[1]; equivalent dosages
  exposure in female vs male rats: ≤ 2 fold
[1]; female rats, 25 mg/kg/day, 26 weeks
  liver metabolic enzyme induction: inducer of CYP1A, CYP2B, CYP2E, CYP3A, and CYP4A
[1]; [5]
  Tmax: 1 h
  AUC(0-t): 9.97 µg·h/mL
[1]; female, Crl:CD(SD)IGS BR, rat, in vivo, 8 mg/kg/day, females, 8 mg/kg/day, Day 177
  Tmax: 2 h
[1]; [6]
  Cmax: 2.63 µg/mL
  Tmax: 1 h
  AUC(0-t): 23.8 µg·h/mL
[1]; [7]
  Cmax: 3.5 µg/mL
  Tmax: 1 h
  AUC(0-t): 29.7 µg·h/mL
[1]; female, Crl:CD(SD)IGS BR, rat, in vivo, […], females, […], Day 0
  Tmax: 2 h
[1]; female, Crl:CD(SD)IGS BR, rat, in vivo, […], females, […], Day 177
  Tmax: 1 h
[1]; female, Crl:CD(SD)IGS BR, rat, plasma, 8 mg/kg/day, females, 8 mg/kg/day, Day 177
  AUC(0-t): 11.1 µg·h/mL
[1]; females, 25 mg/kg/day
  mean ovary/oviduct weights higher: 12%
  mean body weight lower than control: 10%
  mean cumulative body weight gain lower: 14%
[1]; male rats, 25 mg/kg/day, 26 weeks
  liver metabolic enzyme induction: inducer of CYP1A, CYP2B, and CYP2E
[1]; [8]
  Tmax: 1 h
  AUC(0-t): 5.38 µg·h/mL
[1]; [9]
  Cmax: 0.954 µg/mL
  Tmax: 1 h
[1]; [10]
  Cmax: 2.6 µg/mL
  Tmax: 1 h
  AUC(0-t): 18.1 µg·h/mL
[1]; [11]
  Cmax: 2.6 µg/mL
  AUC(0-t): 17.8 µg·h/mL
[1]; male, Crl:CD(SD)IGS BR, rat, in vivo, […], males, […], Day 0
  Tmax: 1 h
[1]; male, Crl:CD(SD)IGS BR, rat, in vivo, […], males, […], Day 177
  Tmax: 1 h
[1]; male, Crl:CD(SD)IGS BR, rat, plasma, 8 mg/kg/day, males, 8 mg/kg/day, Day 177
  AUC(0-t): 7.13 µg·h/mL
[1]; males, 25 mg/kg/day
  mean testes weights higher: 9.5%
  mean body weight lower than control: 12%
  mean cumulative body weight gain lower: 18%
[1]; oral gavage, 26 weeks
  NOEL: 2.5 mg/kg/day
[2]; [12]
  Cmax: 0.615 µg/mL
  Tmax: 1 h
  AUC(0-t): 1.58 µg·h/mL
[2]; [13]
  Cmax: 1.15 µg/mL
  Tmax: 1 h
  AUC(0-t): 3.99 µg·h/mL
[2]; [14]
  Cmax: 3.68 µg/mL
  Tmax: 1.3 h
  AUC(0-t): 10.8 µg·h/mL
[2]; [15]
  Cmax: 2.42 µg/mL
  Tmax: 1 h
  AUC(0-t): 11.1 µg·h/mL
[2]; [16]
  Cmax: 5.8 µg/mL
  Tmax: 1.2 h
  AUC(0-t): 19.6 µg·h/mL
[2]; [17]
  Cmax: 6.88 µg/mL
  Tmax: 1 h
  AUC(0-t): 24.1 µg·h/mL
[2]; females, 6 mg/kg/day
  body weight lower than control: 12%
[2]; females, 20 (15) mg/kg/day
  body weight lower than control: 14%
[2]; [18]
  Cmax: 1.04 µg/mL
  Tmax: 1.3 h
  AUC(0-t): 2.13 µg·h/mL
[2]; [19]
  Cmax: 0.844 µg/mL
  Tmax: 1 h
  AUC(0-t): 2.22 µg·h/mL
[2]; [20]
  Cmax: 3.25 µg/mL
  Tmax: 1.3 h
  AUC(0-t): 10.5 µg·h/mL
[2]; [21]
  Cmax: 2.78 µg/mL
  Tmax: 1.3 h
  AUC(0-t): 15.8 µg·h/mL
[2]; [22]
  Cmax: 4.83 µg/mL
  Tmax: 1.2 h
  AUC(0-t): 18.1 µg·h/mL
[2]; [23]
  Cmax: 7.98 µg/mL
  Tmax: 1 h
  AUC(0-t): 29.6 µg·h/mL
[2]; males, 6 mg/kg/day
  body weight lower than control: 5%
[2]; males, 20 (15) mg/kg/day
  body weight lower than control: 15%
[3]
  remains unchanged after 4 hour incubation: 82.4%
[4]; female, Crl:CD-1(ICR) BR, 10 mg/kg/day
  AUC0-24: 2.086 µg·h/mL
[4]; female, Crl:CD-1(ICR) BR, 30 mg/kg/day
  AUC0-24: 6.474 µg·h/mL
[4]; female, Crl:CD-1(ICR) BR, 100 mg/kg/day
  AUC0-24: 26.436 µg·h/mL
[4]; male, Crl:CD-1(ICR) BR, 150 mg/kg/day, 0 study day
  twitching (animals affected): 3/10
[4]; male, Crl:CD-1(ICR) BR, 10 mg/kg/day
  AUC0-24: 1.907 µg·h/mL
[4]; male, Crl:CD-1(ICR) BR, 30 mg/kg/day
  AUC0-24: 7.25 µg·h/mL
[4]; male, Crl:CD-1(ICR) BR, 100 mg/kg/day
  AUC0-24: 40.306 µg·h/mL
[4]; male, Crl:CD-1(ICR) BR, 150 mg/kg/day
  AUC0-24: 40.248 µg·h/mL
[4]; 150 mg/kg/day
  absolute liver weight higher: 22%
  absolute lymphocyte counts lower: 54%
  percent neutrophil counts higher: 183%
  percentage lymphocyte counts lower: 31%

— patent publication US20160346249A1 (priority 2012, published 2016)
